{"source": "paper PMC4933242", "about": "“Low or No Inhibitory Potency of the Canonical Galectin Carbohydrate-binding Site by Pectins and Galactomannans*” (The Journal of Biological Chemistry, 2016)", "key": {"[1]": {"tested_on": "galectin-3 accumulation in JIMT-1 cells", "test": "Inhibition of GPN-induced galectin-3 accumulation around disrupted lysosomes", "type": "cell-based, human", "conditions": "1 or 10 μM for 24 h, then 0.3 mM GPN 12 min, positive control", "experimental": "The cells were, after the GPN treatment, quickly washed with PBS and fixed with 3.7% formaldehyde for 15 min before blocking/permeabilization with 1% Tween® 20 and 1–5% BSA in PBS for at least 45 min. […] The cell nuclei were visualized by staining with the DNA-binding fluorescent agent bisbenzimide (Hoechst). The coverslips were finally mounted on glass slides using Mowiol® 4-88 and left at 8 °C overnight to solidify before examination. The samples were imaged with an LSM-510 confocal laser scanning microscope (Carl Zeiss Microscopy GmbH, Oberkochen, Germany) equipped with a Hamamatsu R6357 photomultiplier (Hamamatsu Photonics K.K., Hamamatsu, Japan)."}, "galectin-3 [2]": {"molecular_target": "T1, galectin-3 (Homo sapiens, UniProt P17931)", "T1 sequence (P17931 whole entry)": "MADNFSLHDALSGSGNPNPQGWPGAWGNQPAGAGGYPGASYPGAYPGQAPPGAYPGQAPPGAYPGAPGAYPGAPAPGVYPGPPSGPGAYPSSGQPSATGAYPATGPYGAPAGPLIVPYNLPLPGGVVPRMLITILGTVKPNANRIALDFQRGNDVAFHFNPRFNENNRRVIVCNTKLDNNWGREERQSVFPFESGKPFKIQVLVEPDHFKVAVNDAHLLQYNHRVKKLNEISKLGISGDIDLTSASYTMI", "test": "Galectin-3-induced hemagglutination of hen erythrocytes in V-shaped microplates", "type": "cell-based", "conditions": "for Estimated MIC, inhibition of galectin-3-induced hemagglutination, V-plate: MIC given as concentration interval", "protocol": "Hemagglutination by galectin-3 was investigated in two assays, hemagglutination in V-shaped microplates (96 wells) and hemagglutination in gel cards described by Nowak et al. ([47]) and Lapierre et al. ([48]), respectively. Briefly, fresh hen blood in Alsever's solution was washed with 0.15 M NaCl, whereupon a 4% erythrocyte solution (by volume in PBS) was prepared and incubated with 1 mg/ml trypsin at 37 °C for 1 h. The cells were then washed with 0.15 M NaCl. The erythrocytes were diluted and preserved as a 10% solution in ID-CellStab solution. For the hemagglutination in V-shaped microplates, 1 volume of erythrocyte suspension in PBS (final concentration 0.6%), 1 volume of galectin solution, 1 volume of 0.15 M NaCl with or without the galectin inhibitor, and 1 volume of 1% bovine serum albumin (BSA) in 0.15 M NaCl were added to each well of the microplate. The plate was then shaken vigorously for 90 min at room temperature and then left standing still for at least 90 min before observing the hemagglutination status in each well. […] Each mixture was then transferred to individual gel card wells, whereupon the cards were centrifuged for 10 min at 85 × g in an ID-Centrifuge (DiaMed GmbH) and thereafter photographed and analyzed for hemagglutination."}, "galectin-3 [3]": {"molecular_target": "T1, galectin-3", "test": "Fluorescence anisotropy assay, galectin-3", "type": "binding", "conditions": "MIC = inhibitor concentration bringing bound probe to 50%; Fig. 4", "protocol": "FA was used to analyze interactions of probes and ligands with galectins in solution, as described before ([41][–][44]). A PheraStarFS plate reader, with software PHERAstar Mars version 2.10 R3 (BMG, Offenburg, Germany), was used, and FA of fluorescein-tagged saccharide probes was measured with excitation at 485 nm and emission at 520 nm.\nThe anisotropy (A) is given in units of mA, where the theoretical maximum is 400, and the value for free fluorescein typically 23. All conditions were measured in at least two duplicate wells.\nIn this study, the effect of inhibitors of the saccharide probe/galectin interaction was tested in two ways. In the first, a fixed low concentration of fluorescein-tagged probe (0.1 μM) and galectin were mixed with a range of concentrations of inhibitor. An optimal probe was chosen for each galectin to permit use of as low as possible concentration of galectin, while still achieving a sufficient rise in anisotropy for a reliable measuring range ([42][–][44]). […] With structurally defined inhibitors (pure synthetic galacto-oligosaccharides, small galactomannans, and reference ligands) the molecular mass, molar concentrations, and number of binding sites (in this case one binding site per ligand) were known and their dissociation constants (Kd) could therefore be directly calculated, using the data from the FA assay as described in Sörme et al. ([41]). […] Even if the molar concentration of the inhibitor is not known, the anisotropy value at a given condition permits calculation of the molar concentration of free galectin, as described below, and from this what fraction of the galectin is bound by a given mass per volume concentration of inhibitor. From this, the ratio of the molar concentration of the free inhibitor binding sites to their Kd value can be calculated, even if the FA assay cannot distinguish between the case when this is due to a few high affinity binding sites in the polysaccharide fraction or many of low affinity."}}}
{"compound": "OC[C@H]1O[C@@H](S[C@@H]2O[C@H](CO)[C@H](O)[C@H](n3cc(-c4cccc(F)c4)nn3)[C@H]2O)[C@H](O)[C@@H](n2cc(-c3cccc(F)c3)nn2)[C@H]1O", "note": "[33DFTG, 3,3′-Dideoxy-3,3′-bis-[4-(3-fluorophenyl)-1H-1,2,3-triazol-1-yl]-1,1′-sulfanediyl-di-β-D-galactopyranoside]", "values": [{"measurement": "inhibition of GPN-induced galectin-3 accumulation", "setting": "[1]", "result": "inhibit the galectin-3 accumulation"}, {"measurement": "Estimated MIC, inhibition of galectin-3-induced hemagglutination, V-plate", "setting": "galectin-3 [2]; 1 μM galectin-3", "result": "0.25 to 0.74", "unit": "µM"}, {"measurement": "Estimated MIC, inhibition of galectin-3-induced hemagglutination, V-plate", "setting": "galectin-3 [2]; 5 μM galectin-3", "result": "2.22 to 6.67", "unit": "µM"}, {"measurement": "slope of MIC versus galectin-3 concentration, hemagglutination", "setting": "galectin-3 [2]; V-shaped microtiter plates, Fig. 4", "result": "around 1"}, {"measurement": "slope of MIC versus galectin-3 concentration, FA assay", "setting": "galectin-3 [3]", "result": "around 1"}]}
